Results taken from PMC7918738, “Microtubule Destabilizing Sulfonamides as an Alternative to Taxane-Based Chemotherapy” (International Journal of Molecular Sciences, 2021).

Experiments:
[1] = test system: HeLa cells; experiment: Cell cycle analysis in HeLa (PI staining, flow cytometry); type: cell-based, human; conditions: 24 h; 38 600 nM, 42 50 nM, 45 400 nM
Experimental: The effect of the lead MDS on the cell cycle of MCF7, SKOV3, and HeLa cells was analyzed in time-course experiments at 24, 48, and 72 h post-treatment by DNA staining and flow cytometry quantification. The working concentration for each compound (600 nM for 38, 50 nM for 42, and 400 nM for 45) was established at the complete inhibition of cell proliferation in view of individually assays run in parallel for each cell line.
Cell cycle analysis was performed in MCF7, SKOV-3, and HeLa cells by quantifying the DNA content by flow cytometry. Cells in the exponential growth phase at 2·10^4 cells/mL were seeded in 24-well plates (1 mL/well). After 24 h incubation, cells were treated with different concentrations of the selected compounds and the effect of treated and untreated cells was measured 24, 48, and 72 h post-treatment. Live and dead cells were collected and fixed in ice-cold ethanol/PBS (7:3) and stored at 4 °C for later use. Cells were rehydrated with PBS, treated with 100 µg/mL RNase A (Sigma-Aldrich Co., St. Louis, MO, USA) and stained overnight in darkness at room temperature with 50 µg/mL PI (Sigma-Aldrich Co.). Cell cycle profiles were then analyzed by flow cytometry using BD Accuri™ C6 Plus Flow Cytometer (BD Biosciences, San José, CA, USA). Data were analyzed with BD Accuri™ C6 Software (version 1.0.264.21, BD Biosciences, San José, CA, USA) and compared to control cells. Compounds were dissolved in DMSO and the final solvent concentration never exceeded 0.5% (v/v). Control wells included cells with 0.5% (v/v) DMSO.

[2] = test system: OVCAR-3 ovarian carcinoma cells; experiment: Antiproliferative activity against OVCAR-3 (MTT); type: cell-based; conditions: Homo sapiens, 72 h
Experimental: (§1) The in vitro antiproliferative activity of compounds 38, 42, and 45 against a panel of five human ovarian carcinoma cell lines (SKOV3, IGROV-1, A2780, OVCAR-8, and OVCAR-3) was evaluated by a colorimetric method (Table 3) and compared with paclitaxel. […] For SKOV3, the potency reduction observed for paclitaxel together with a sustained or improved (42 with a 7 nM IC50 value) potency for MDS results in a more favorable profile of the MDS compared to paclitaxel.
(§2) MCF7 (human breast carcinoma), SKOV-3 (human ovarian carcinoma), OVCAR-3 (human ovarian carcinoma), OVCAR-8 (human ovarian carcinoma), and HeLa (human cervical carcinoma) cell lines were cultured in Dulbecco’s Modified Eagle’s Medium (DMEM) (Gibco, Thermo Fischer Scientific) containing 10% (v/v) heat-inactivated fetal bovine serum (HIFBS) (Lonza-Cambrex, Karlskoga, Sweden), 2 mM L-glutamine (Lonza-Cambrex, Karlskoga, Sweden), 100 μg/mL streptomycin, and 100 IU/mL penicillin (Lonza-Cambrex) at 37 °C in humidified 95% air and 5% CO2. […]
(§3) MCF7, HeLa, and HT-29 cell proliferation, when treated with the corresponding compounds, were determined using the XTT (sodium 3’-[1(phenylaminocarbonyl)-3,4-tetrazolium]-bis(4-methoxy-6-nitro)-benzenesulfonic acid hydrate) cell proliferation kit (Roche Molecular Biochemicals, Mannheim, Germany). […] The absorbance of the formazan product generated was measured at 450 nm using a multi-well plate reader. SKOV-3, OVCAR-3, OVCAR-8, IGROV-1, A-2780 cell proliferation, when treated with the corresponding compound, were determined using MTT (3-(4,5-dimethylthiazol-2-yl)-2,5-diphenyl-2H-tetrazolium bromide) (Sigma-Aldrich, St. Louis, MO, USA). […] Absorbance was measured at 570 nm in a plate reader (Ultra Evolution, Tecan, Männedorf, Suiza). […] After 24 h incubation, to allow cells to attach to the plates, all compounds were added at 1 µM concentration and the effect on the proliferation was evaluated 72 h post-treatment. […]

[3] = test system: IGROV-1 ovarian carcinoma cells; experiment: Antiproliferative activity against IGROV-1 (MTT); type: cell-based; conditions: Homo sapiens, 72 h
Experimental: as §1
(§4) MCF7 (human breast carcinoma), SKOV-3 (human ovarian carcinoma), OVCAR-3 (human ovarian carcinoma), OVCAR-8 (human ovarian carcinoma), and HeLa (human cervical carcinoma) cell lines were cultured in Dulbecco’s Modified Eagle’s Medium (DMEM) (Gibco, Thermo Fischer Scientific) containing 10% (v/v) heat-inactivated fetal bovine serum (HIFBS) (Lonza-Cambrex, Karlskoga, Sweden), 2 mM L-glutamine (Lonza-Cambrex, Karlskoga, Sweden), 100 μg/mL streptomycin, and 100 IU/mL penicillin (Lonza-Cambrex) at 37 °C in humidified 95% air and 5% CO2. HT-29 (human colon carcinoma), IGROV-1 (human ovarian carcinoma), and A2780 (human ovarian carcinoma) cell lines were cultured in RPMI 1640 medium (Gibco, Thermo Fischer Scientific) supplemented with 10% HIFBS, 100 μg/mL streptomycin, and 100 IU/mL penicillin at 37 °C in humidified 95% air and 5% CO2 atmosphere. The presence of mycoplasma was routinely checked with MycoAlert kit (Lonza-Cambrex) and only mycoplasma-free cells were used in the experiments. Ovarian tumor cell lines were originally acquired from Dr Atanasio Pandiella from Centro de Investigación del Cáncer (CIC), Salamanca, Spain. HeLa, HT-29 and MCF7 tumor cell lines were provided by Dr Faustino Mollinedo from Centro de Investigaciones Biológicas Margarita Salas, Madrid, Spain.
as §3

[4] = test system: SKOV3 ovarian carcinoma cells; experiment: Antiproliferative activity against SKOV3 (MTT); type: cell-based; conditions: Homo sapiens, SK-OV-3, 72 h
Experimental: as §1, §4, §3

[5] = test system: OVCAR-8 ovarian carcinoma cells; experiment: Antiproliferative activity against OVCAR-8 (MTT); type: cell-based; conditions: Homo sapiens, 72 h
Experimental: as §1, §2, §3

COc1ccc(S(=O)(=O)N(C)c2cc(OC)c(OC)c(OC)c2)cc1N [Compound 42]
HeLa cells at G2/M phase [1]: 44%
IC50 [2]: 72 nM
IC50 [3]: 400 nM
IC50 [4]: 7 nM
IC50 [5]: 37 nM

CNc1ccc(S(=O)(=O)N(C)c2cc(OC)c(OC)c(OC)c2)cc1 [Compound 38]
HeLa cells at G2/M phase [1]: 80%
IC50 [2]: 31 nM
IC50 [3]: 248 nM
IC50 [4]: 46 nM
IC50 [5]: 74 nM

COc1ccc(S(=O)(=O)N(Cc2ccccc2)c2cc(OC)c(OC)c(OC)c2)cc1N [Compound 45]
HeLa cells at G2/M phase [1]: 80%
IC50 [2]: 58 nM
IC50 [3]: 492 nM
IC50 [4]: 48 nM
IC50 [5]: 48 nM
